In US12617779B2, “Self degradation-type CDK9 inhibitor prodrug and liposome encapsulating same” (Sumitomo Pharma Co., Ltd., priority 2021, dated 2026):
One block for each compound: values may come before it.

Assay: Evaluation of conversion rate to active form in buffer solution (Experimental Example 1)
Type: physicochemical
Method: For Examples 1 to 16 and Comparative Examples 1 to 14, the attrition rate of the test compound and the conversion rate of the test compound to Alvocidib in a buffer solution were calculated by the following method.
Examples 1 to 16 and Comparative Examples 1 to 14 were each left in buffer solutions adjusted to pH 5.0, 5.5, 6.0, 6.5, 7.0 and 7.4, respectively, at a concentration of 25 umol/L at 37° C. After 0, 0.5, 1, 2 and 3 hours, the residual rates of the compounds of Examples […] and the production rate of Alvocidib were determined by HPLC.
The buffer solutions used at each pH are as follows. • pH 5.0: 50 mM citrate buffer solution (pH 5.0) • pH 5.5: 50 mM citrate buffer solution (pH 5.5) • pH 6.0: 50 mM phosphate buffer solution (pH 6.0) • pH 6.5: 50 mM phosphate buffer solution (pH 6.5) • pH 7.0: 50 mM phosphate buffer solution (pH 7.0) • pH 7.4: 50 mM phosphate buffer solution (pH 7.4)
The measurement conditions for HPLC are as follows.

Compound: CNC(=O)Oc1cc(O)c2c(=O)cc(-c3ccccc3Cl)oc2c1[C@H]1CCN(C)C[C@H]1O [Comparative Example 2, reference compound]
Production rate of Alvocidib (pH5.0, 0 hr): 2.0%
Residual rate (pH5.0, 0 hr): 96.6%
Stability in buffer solution at pH 5 (pH 5, 37° C., up to 2 or 3 hours): unstable
Conversion to Alvocidib at pH 5 within 3 hours (pH 5, 37° C., within 3 hours): mostly converted to Alvocidib
Production rate of Alvocidib (pH5.0, 0.5 hr): 31.8%
Residual rate (pH5.0, 0.5 hr): 66.9%
Production rate of Alvocidib (pH5.0, 1 hr): 53.2%
Residual rate (pH5.0, 1 hr): 45.1%
Production rate of Alvocidib (pH5.0, 2 hr): 79.0%
Residual rate (pH5.0, 2 hr): 19.3%
Production rate of Alvocidib (pH5.0, 3 hr): 90.0%
Residual rate (pH5.0, 3 hr): 8.5%
Production rate of Alvocidib (pH5.5, 0 hr): 2.4%
Residual rate (pH5.5, 0 hr): 96.4%
Production rate of Alvocidib (pH5.5, 0.5 hr): 70.5%
Residual rate (pH5.5, 0.5 hr): 28.0%
Production rate of Alvocidib (pH5.5, 1 hr): 90.8%
Residual rate (pH5.5, 1 hr): 7.5%
Production rate of Alvocidib (pH5.5, 2 hr): 97.6%
Residual rate (pH5.5, 2 hr): 0.6%
Production rate of Alvocidib (pH5.5, 3 hr): 98.6%
Residual rate (pH5.5, 3 hr): 0.0%
Production rate of Alvocidib (pH6.0, 0 hr): 3.3%
Residual rate (pH6.0, 0 hr): 95.1%
Production rate of Alvocidib (pH6.0, 0.5 hr): 95.7%
Residual rate (pH6.0, 0.5 hr): 2.5%
Production rate of Alvocidib (pH6.0, 1 hr): 98.2%
Residual rate (pH6.0, 1 hr): 0.0%
Production rate of Alvocidib (pH6.0, 2 hr): 98.3%
Residual rate (pH6.0, 2 hr): 0.0%
Production rate of Alvocidib (pH6.0, 3 hr): 98.6%
Residual rate (pH6.0, 3 hr): 0.0%
Production rate of Alvocidib (pH6.5, 0 hr): 7.1%
Residual rate (pH6.5, 0 hr): 91.5%
Production rate of Alvocidib (pH6.5, 0.5 hr): 98.3%
Residual rate (pH6.5, 0.5 hr): 0.0%
Production rate of Alvocidib (pH6.5, 1 hr): 98.3%
Residual rate (pH6.5, 1 hr): 0.0%
Production rate of Alvocidib (pH6.5, 2 hr): 98.5%
Residual rate (pH6.5, 2 hr): 0.0%
Production rate of Alvocidib (pH6.5, 3 hr): 98.2%
Residual rate (pH6.5, 3 hr): 0.0%
Production rate of Alvocidib (pH7.0, 0 hr): 17.0%
Residual rate (pH7.0, 0 hr): 81.8%
Production rate of Alvocidib (pH7.0, 0.5 hr): 98.6%
Residual rate (pH7.0, 0.5 hr): 0.0%
Production rate of Alvocidib (pH7.0, 1 hr): 98.3%
Residual rate (pH7.0, 1 hr): 0.0%
Production rate of Alvocidib (pH7.0, 2 hr): 98.3%
Residual rate (pH7.0, 2 hr): 0.0%
Production rate of Alvocidib (pH7.0, 3 hr): 98.3%
Residual rate (pH7.0, 3 hr): 0.0%
Production rate of Alvocidib (pH7.4, 0 hr): 34.5%
Residual rate (pH7.4, 0 hr): 63.9%
Production rate of Alvocidib (pH7.4, 0.5 hr): 98.4%
Residual rate (pH7.4, 0.5 hr): 0.0%
Production rate of Alvocidib (pH7.4, 1 hr): 98.2%
Residual rate (pH7.4, 1 hr): 0.0%
Production rate of Alvocidib (pH7.4, 2 hr): 98.5%
Residual rate (pH7.4, 2 hr): 0.0%
Production rate of Alvocidib (pH7.4, 3 hr): 98.5%
Residual rate (pH7.4, 3 hr): 0.0%

Production rate of Alvocidib (pH5.0, 0 hr): 0.0%
Residual rate (pH5.0, 0 hr): 93.9%
Production rate of Alvocidib (pH5.0, 0.5 hr): 0.0%
Residual rate (pH5.0, 0.5 hr): 93.5%
Production rate of Alvocidib (pH5.0, 1 hr): 0.0%
Residual rate (pH5.0, 1 hr): 93.4%
Production rate of Alvocidib (pH5.0, 2 hr): 0.0%
Residual rate (pH5.0, 2 hr): 93.9%
Production rate of Alvocidib (pH5.0, 3 hr): 0.0%
Residual rate (pH5.0, 3 hr): 93.9%
Production rate of Alvocidib (pH5.5, 0 hr): 0.0%
Residual rate (pH5.5, 0 hr): 93.9%
Production rate of Alvocidib (pH5.5, 0.5 hr): 0.0%
Residual rate (pH5.5, 0.5 hr): 93.8%
Production rate of Alvocidib (pH5.5, 1 hr): 0.0%
Residual rate (pH5.5, 1 hr): 93.8%
Production rate of Alvocidib (pH5.5, 2 hr): 0.0%
Residual rate (pH5.5, 2 hr): 94.0%
Production rate of Alvocidib (pH5.5, 3 hr): 0.0%
Residual rate (pH5.5, 3 hr): 93.6%
Production rate of Alvocidib (pH6.0, 0 hr): 0.0%
Residual rate (pH6.0, 0 hr): 93.5%
Production rate of Alvocidib (pH6.0, 0.5 hr): 0.0%
Residual rate (pH6.0, 0.5 hr): 94.0%
Production rate of Alvocidib (pH6.0, 1 hr): 0.0%
Residual rate (pH6.0, 1 hr): 93.5%
Production rate of Alvocidib (pH6.0, 2 hr): 0.0%
Residual rate (pH6.0, 2 hr): 93.9%
Production rate of Alvocidib (pH6.0, 3 hr): 0.0%
Residual rate (pH6.0, 3 hr): 94.0%
Production rate of Alvocidib (pH6.5, 0 hr): 0.0%
Residual rate (pH6.5, 0 hr): 93.5%
Production rate of Alvocidib (pH6.5, 0.5 hr): 0.0%
Residual rate (pH6.5, 0.5 hr): 93.9%
Production rate of Alvocidib (pH6.5, 1 hr): 0.0%
Residual rate (pH6.5, 1 hr): 93.6%
Production rate of Alvocidib (pH6.5, 2 hr): 0.0%
Residual rate (pH6.5, 2 hr): 93.5%
Production rate of Alvocidib (pH6.5, 3 hr): 0.0%
Residual rate (pH6.5, 3 hr): 93.5%
Production rate of Alvocidib (pH7.0, 0 hr): 0.0%
Residual rate (pH7.0, 0 hr): 93.9%
Production rate of Alvocidib (pH7.0, 0.5 hr): 0.0%
Residual rate (pH7.0, 0.5 hr): 93.4%
Production rate of Alvocidib (pH7.0, 1 hr): 0.0%
Residual rate (pH7.0, 1 hr): 93.8%
Production rate of Alvocidib (pH7.0, 2 hr): 0.0%
Residual rate (pH7.0, 2 hr): 93.9%
Production rate of Alvocidib (pH7.0, 3 hr): 0.0%
Residual rate (pH7.0, 3 hr): 93.3%
Production rate of Alvocidib (pH7.4, 0 hr): 0.0%
Residual rate (pH7.4, 0 hr): 93.3%
Conversion to Alvocidib at pH 7.4 (pH 7.4, 37° C., up to 3 hours): slowly converted to Alvocidib
Production rate of Alvocidib (pH7.4, 0.5 hr): 0.0%
Residual rate (pH7.4, 0.5 hr): 93.9%
Production rate of Alvocidib (pH7.4, 1 hr): 0.0%
Residual rate (pH7.4, 1 hr): 93.9%
Production rate of Alvocidib (pH7.4, 2 hr): 0.0%
Residual rate (pH7.4, 2 hr): 93.4%
Production rate of Alvocidib (pH7.4, 3 hr): 0.0%
Residual rate (pH7.4, 3 hr): 93.4%
Compound: CNC(=O)O[C@@H]1CN(C)CC[C@@H]1c1c(O)cc(O)c2c(=O)cc(-c3ccccc3Cl)oc12 [Comparative Example 5, reference compound]
